Laboratory results as given in ChEMBL document CHEMBL5226282, “TLR2 Agonistic Small Molecules: Detailed Structure-Activity Relationship, Applications, and Future Prospects” (J Med Chem, 2021).

Key:
Toll-like receptor 2 = Toll-like receptor 2 (Homo sapiens, UniProt O60603); assay: Agonist activity at human TLR2 transfected in HEK293 cells; assay type: cell-based
Toll-like receptor 1/2 = Toll-like receptor 1/2 (Homo sapiens, UniProt O60603+Q15399); assay: Agonist activity at TLR2/TLR1 in human THP-1 cells; assay type: cell-based
Sequence of Toll-like receptor 1/2 (O60603 whole entry): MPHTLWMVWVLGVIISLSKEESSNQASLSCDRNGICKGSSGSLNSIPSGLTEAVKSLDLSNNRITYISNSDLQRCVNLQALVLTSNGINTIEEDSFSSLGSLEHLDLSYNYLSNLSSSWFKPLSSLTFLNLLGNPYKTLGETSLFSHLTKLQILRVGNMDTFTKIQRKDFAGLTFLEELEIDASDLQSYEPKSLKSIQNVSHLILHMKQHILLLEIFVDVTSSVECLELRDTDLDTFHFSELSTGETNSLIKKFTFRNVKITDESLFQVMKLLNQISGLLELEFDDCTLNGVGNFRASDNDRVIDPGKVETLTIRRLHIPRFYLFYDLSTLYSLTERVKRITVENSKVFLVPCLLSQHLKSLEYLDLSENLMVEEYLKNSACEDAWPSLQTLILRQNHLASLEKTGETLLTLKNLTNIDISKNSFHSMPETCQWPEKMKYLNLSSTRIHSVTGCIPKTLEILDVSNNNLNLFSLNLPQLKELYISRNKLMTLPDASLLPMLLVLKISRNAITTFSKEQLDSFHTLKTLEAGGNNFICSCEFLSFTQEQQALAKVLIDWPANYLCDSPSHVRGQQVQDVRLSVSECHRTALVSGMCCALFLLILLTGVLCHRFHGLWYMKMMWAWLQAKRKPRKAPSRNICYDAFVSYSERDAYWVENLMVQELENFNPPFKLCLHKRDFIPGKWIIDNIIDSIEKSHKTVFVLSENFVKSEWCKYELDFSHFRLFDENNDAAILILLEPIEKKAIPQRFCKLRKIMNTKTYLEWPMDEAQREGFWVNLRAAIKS
Sequence of Toll-like receptor 1/2 (Q15399 whole entry): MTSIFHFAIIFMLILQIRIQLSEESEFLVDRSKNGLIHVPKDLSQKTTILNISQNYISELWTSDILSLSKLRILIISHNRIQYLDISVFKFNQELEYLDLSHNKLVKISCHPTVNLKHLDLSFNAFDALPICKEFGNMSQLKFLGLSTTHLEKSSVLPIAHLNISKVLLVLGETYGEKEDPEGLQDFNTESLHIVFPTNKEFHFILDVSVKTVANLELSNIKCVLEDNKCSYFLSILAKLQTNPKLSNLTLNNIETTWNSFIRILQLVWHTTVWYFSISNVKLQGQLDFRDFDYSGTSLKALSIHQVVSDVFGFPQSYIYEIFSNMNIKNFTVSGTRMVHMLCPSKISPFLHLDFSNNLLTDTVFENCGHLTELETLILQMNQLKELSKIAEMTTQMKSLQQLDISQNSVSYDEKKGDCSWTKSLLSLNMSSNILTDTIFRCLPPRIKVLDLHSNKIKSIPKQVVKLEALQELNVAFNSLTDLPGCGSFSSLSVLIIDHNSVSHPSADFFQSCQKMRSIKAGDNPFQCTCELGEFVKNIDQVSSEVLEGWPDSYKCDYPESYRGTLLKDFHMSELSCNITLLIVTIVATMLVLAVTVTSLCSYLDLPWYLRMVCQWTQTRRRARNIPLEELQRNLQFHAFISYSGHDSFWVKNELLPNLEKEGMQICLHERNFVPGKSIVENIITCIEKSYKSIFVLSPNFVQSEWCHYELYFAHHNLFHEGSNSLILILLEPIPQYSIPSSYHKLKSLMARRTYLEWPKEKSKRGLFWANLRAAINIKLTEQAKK

[1] = biological target: Toll-like receptor 1/2 (Mus musculus); assay: Agonist activity at TLR2/TLR1 in mouse Macrophage cell line

Sequence of Toll-like receptor 2 (O60603 whole entry): as the sequence (O60603 whole entry) above

| SMILES | EC50 (Toll-like receptor 2) | EC50 (Toll-like receptor 2; hek293) | EC50 (Toll-like receptor 1/2) | EC50 [1] |
| --- | --- | --- | --- | --- |
| CCCCCCCCCCCC(=O)OC[C@H](CSC[C@@H](N)C(=O)NCCCC(C)(C)CO)OC(=O)CCCCCCCCCCC | 30700 nM |  |  |  |
| CCCCCCCCCCCC(=O)OC[C@H](CSC[C@@H](N)C(=O)NC(CC)COC)OC(=O)CCCCCCCCCCC (stereo partly drawn) | 71.8 nM |  |  |  |
| CCCCCCCCCCCC(=O)OC[C@H](CSC[C@@H](N)C(=O)N[C@@H](CO)C(=O)NCCOCCOCCOCCC(=O)O)OC(=O)CCCCCCCCCCC | 4940 nM |  |  |  |
| CCCCCCCCCCCC(=O)OC[C@H](CSC[C@@H](N)C(=O)NCCc1cccc(O)c1)OC(=O)CCCCCCCCCCC | > 21000 nM |  |  |  |
| CCCCCCCCCCCC(=O)OC[C@H](CSC[C@@H](N)C(=O)NCCOCCOCCC(F)(F)P(=O)(O)O)OC(=O)CCCCCCCCCCC | 31 nM |  |  |  |
| CCCCCCCCCCCC(=O)OC[C@H](CSC[C@@H](N)C(=O)NCCCCCN)OC(=O)CCCCCCCCCCC | 1220 nM |  |  |  |
| CCCCCCCCCCCC(=O)OC[C@H](CSC[C@@H](N)C(=O)NCCOCCOCCOCCOCCP(=O)(O)O)OC(=O)CCCCCCCCCCC | 38 nM |  |  |  |
| CCCCCCCCCCCC(=O)OC[C@H](CSC[C@@H](N)C(=O)NCCc1ccc(OCCC(C)C)cc1)OC(=O)CCCCCCCCCCC | 8170 nM |  |  |  |
| CCCCCCCCCCCC(=O)OC[C@H](CSC[C@@H](N)C(=O)N[C@H](C)COCCCP(=O)(O)O)OC(=O)CCCCCCCCCCC | 19.2 nM |  |  |  |
| CCCCCCCCCCCC(=O)OC[C@H](CSC[C@@H](N)C(=O)NCCOCCP(=O)(O)O)OC(=O)CCCCCCCCCCC | 119 nM |  |  |  |
| CCCCCCCCCCCC(=O)OC[C@H](CSC[C@@H](N)C(=O)NCCOCCC(F)(F)P(=O)(O)O)OC(=O)CCCCCCCCCCC | 14 nM |  |  |  |
| CCCCCCCCCCCC(=O)OC[C@H](CSC[C@@H](N)C(=O)NCCCS(=O)(=O)O)OC(=O)CCCCCCCCCCC | 5560 nM |  |  |  |
| CCCCCCCCCCCC(=O)OC[C@H](CSC[C@@H](N)C(=O)NC(C)(C)CO)OC(=O)CCCCCCCCCCC | 15500 nM |  |  |  |
| CCCCCCCCCCCC(=O)OC[C@H](CSC[C@@H](N)C(=O)NC(C)CCN(CC)CC)OC(=O)CCCCCCCCCCC (stereo partly drawn) | 257 nM |  |  |  |
| CCCCCCCCCCCC(=O)OC[C@H](CSC[C@@H](N)C(=O)NC(C)CCC(C)C)OC(=O)CCCCCCCCCCC (stereo partly drawn) | 190 nM |  |  |  |
| CCCCCCCCCCCC(=O)OC[C@H](CSC[C@@H](N)C(=O)N[C@@H](CC)COCC(=O)O)OC(=O)CCCCCCCCCCC | 6500 nM |  |  |  |
| CCCCCCCCCCCC(=O)OC[C@H](CSC[C@@H](N)C(=O)NCCCOCCOCCOCCCN)OC(=O)CCCCCCCCCCC | 498 nM |  |  |  |
| CCCCCCCCCCCCCCCC(=O)OCC(CSC[C@@H](N)C(=O)N[C@@H](CO)C(=O)N[C@@H](CC(N)=O)C(=O)N[C@@H](CC(C)C)C(=O)N[C@H](C(=O)N[C@H](C(=O)N[C@@H](C)C(=O)N[C@@H](CO)C(=O)N[C@@H](CCC(=O)O)C(=O)N[C@H](C(=O)N[C@@H](CC(C)C)C(=O)O)[C@@H](C)O)[C@@H](C)CC)[C@@H](C)CC)OC(=O)CCCCCCCCCCCCCCC (stereo partly drawn) |  | 270 nM |  |  |
| CCCCCCCCCCCC(=O)OC[C@H](CSC[C@@H](N)C(=O)NC(Cc1ccccc1)c1ccccc1)OC(=O)CCCCCCCCCCC (stereo partly drawn) | 68 nM |  |  |  |
| CCCCCCCCCCCC(=O)OC[C@H](CSC[C@@H](N)C(=O)NCCOCCOCCN)OC(=O)CCCCCCCCCCC | 1290 nM |  |  |  |
| CCCCCCCCCCCC(=O)OC[C@H](CSC[C@@H](N)C(=O)NCCc1ccc(OCCOCCO)cc1)OC(=O)CCCCCCCCCCC | 15300 nM |  |  |  |
| CCCCCCCCCCCC(=O)OC[C@H](CSC[C@@H](N)C(=O)NCCc1ccc(OCCCP(=O)(O)O)cc1)OC(=O)CCCCCCCCCCC | 410 nM |  |  |  |
| CCCCCCCCCCCC(=O)OC[C@H](CSC[C@@H](N)C(=O)NCCc1ccc(Oc2ccccc2)cc1)OC(=O)CCCCCCCCCCC | 4080 nM |  |  |  |

| SMILES | EC50 (Toll-like receptor 2) | EC50 (Toll-like receptor 2; hek293) | EC50 (Toll-like receptor 1/2) | EC50 [1] |
| --- | --- | --- | --- | --- |
| CCCCCCCCCCCC(=O)OC[C@H](CSC[C@@H](N)C(=O)NCCOCCOS(=O)(=O)O)OC(=O)CCCCCCCCCCC | 61 nM |  |  |  |
| CCCCCCCCCCCCCCNC(=O)[C@@H]1CN(C(=O)c2ccc(C(=O)N3C[C@@H](C(=O)N[C@H]4C[C@@H]4c4ccccc4)[C@H](C(=O)N[C@@H]4C[C@H]4c4ccccc4)C3)cc2)C[C@H]1C(=O)N[C@H]1C[C@@H]1c1ccccc1 |  |  | 0.08 nM | 1.1 nM |
| O=C(N[C@H]1C[C@@H]1c1ccccc1)[C@@H]1CN(C(=O)C/C=C/CC(=O)N2C[C@@H](C(=O)N[C@H]3C[C@@H]3c3ccccc3)[C@H](C(=O)N[C@H]3C[C@@H]3c3ccccc3)C2)C[C@H]1C(=O)N[C@H]1C[C@@H]1c1ccccc1 |  |  | > 5000 nM | > 5000 nM |
| COc1ccc([C@H]2C[C@@H]2NC(=O)[C@@H]2CN(C(=O)c3ccc(C(=O)N4C[C@@H](C(=O)N[C@H]5C[C@@H]5c5ccc(OC)cc5)[C@H](C(=O)N[C@@H]5C[C@H]5c5ccc(OC)cc5)C4)cc3)C[C@H]2C(=O)N[C@H]2C[C@@H]2c2ccc(OC)cc2)cc1 |  |  | > 5000 nM | > 5000 nM |
| O=C(N[C@H]1C[C@@H]1c1ccccc1)[C@@H]1CN(C(=O)[C@H]2CC[C@H](C(=O)N3C[C@@H](C(=O)N[C@H]4C[C@@H]4c4ccccc4)[C@H](C(=O)N[C@H]4C[C@@H]4c4ccccc4)C3)CC2)C[C@H]1C(=O)N[C@H]1C[C@@H]1c1ccccc1 |  |  | > 5000 nM | > 5000 nM |
| CCCCCCNC(=O)[C@@H]1CN(C(=O)c2ccc(C(=O)N3C[C@@H](C(=O)NCCCCCC)[C@H](C(=O)N[C@@H]4C[C@H]4c4ccccc4)C3)cc2)C[C@H]1C(=O)N[C@@H]1C[C@H]1c1ccccc1 |  |  | 0.8 nM | 1100 nM |
| O=C(N[C@H]1C[C@@H]1c1ccccc1)[C@@H]1CN(C(=O)c2ccc(-c3ccc(C(=O)N4C[C@@H](C(=O)N[C@H]5C[C@@H]5c5ccccc5)[C@H](C(=O)N[C@H]5C[C@@H]5c5ccccc5)C4)cc3)cc2)C[C@H]1C(=O)N[C@H]1C[C@@H]1c1ccccc1 |  |  | 90 nM | 2300 nM |
| O=C(N[C@H]1C[C@@H]1c1ccccc1)[C@@H]1CN(C(=O)c2cc(Cl)c(C(=O)N3C[C@@H](C(=O)N[C@H]4C[C@@H]4c4ccccc4)[C@H](C(=O)N[C@H]4C[C@@H]4c4ccccc4)C3)cc2Cl)C[C@H]1C(=O)N[C@H]1C[C@@H]1c1ccccc1 |  |  | 360 nM | > 5000 nM |
| CCCNC(=O)[C@@H]1CN(C(=O)c2ccc(C(=O)N3C[C@@H](C(=O)N[C@H]4C[C@@H]4c4ccccc4)[C@H](C(=O)N[C@@H]4C[C@H]4c4ccccc4)C3)cc2)C[C@H]1C(=O)N[C@H]1C[C@@H]1c1ccccc1 |  |  | 17 nM | 360 nM |
| O=C(N[C@H]1C[C@@H]1c1ccccc1)[C@@H]1CN(C(=O)c2cccc(C(=O)N3C[C@@H](C(=O)N[C@H]4C[C@@H]4c4ccccc4)[C@H](C(=O)N[C@H]4C[C@@H]4c4ccccc4)C3)c2)C[C@H]1C(=O)N[C@H]1C[C@@H]1c1ccccc1 |  |  | > 5000 nM | > 5000 nM |
| O=C(NCCc1ccc(F)cc1)[C@@H]1CN(C(=O)c2ccc(C(=O)N3C[C@@H](C(=O)NCCc4ccc(F)cc4)[C@H](C(=O)NCCc4ccc(F)cc4)C3)c(O)c2)C[C@H]1C(=O)NCCc1ccc(F)cc1 |  |  | 130 nM | > 5000 nM |
| COC(=O)[C@@H]1CN(C(=O)c2ccc(C(=O)N3C[C@@H](C(=O)N[C@@H]4C[C@H]4c4ccccc4)[C@H](C(=O)OC)C3)cc2)C[C@H]1C(=O)N[C@@H]1C[C@H]1c1ccccc1 |  |  | > 5000 nM | > 5000 nM |
| O=C(N[C@H]1C[C@@H]1c1ccccc1)[C@@H]1CN(C(=O)/C=C/C(=O)N2C[C@@H](C(=O)N[C@H]3C[C@@H]3c3ccccc3)[C@H](C(=O)N[C@H]3C[C@@H]3c3ccccc3)C2)C[C@H]1C(=O)N[C@H]1C[C@@H]1c1ccccc1 |  |  | > 5000 nM | > 5000 nM |
| CCCCNC(=O)[C@@H]1CN(C(=O)c2ccc(C(=O)N3C[C@@H](C(=O)N[C@H]4C[C@@H]4c4ccccc4)[C@H](C(=O)N[C@@H]4C[C@H]4c4ccccc4)C3)cc2)C[C@H]1C(=O)N[C@H]1C[C@@H]1c1ccccc1 |  |  | 2 nM | 30 nM |
| O=C(NCCc1ccc(F)cc1)[C@@H]1CN(C(=O)c2ccc3cc(C(=O)N4C[C@@H](C(=O)NCCc5ccc(F)cc5)[C@H](C(=O)NCCc5ccc(F)cc5)C4)ccc3c2)C[C@H]1C(=O)NCCc1ccc(F)cc1 |  |  | > 5000 nM | > 5000 nM |
| O=C(N[C@H]1C[C@@H]1c1ccccc1)[C@@H]1CN(C(=O)c2c(F)c(F)c(C(=O)N3C[C@@H](C(=O)N[C@H]4C[C@@H]4c4ccccc4)[C@H](C(=O)N[C@H]4C[C@@H]4c4ccccc4)C3)c(F)c2F)C[C@H]1C(=O)N[C@H]1C[C@@H]1c1ccccc1 |  |  | 110 nM | > 5000 nM |
| CCCCNC(=O)[C@@H]1CN(C(=O)c2ccc(C(=O)N3C[C@@H](C(=O)N[C@H]4C[C@@H]4c4ccccc4)[C@H](C(=O)N[C@@H]4C[C@H]4c4ccccc4)C3)cc2)C[C@H]1C(=O)NCCCC |  |  | 0.28 nM | 60 nM |
| O=C(N[C@H]1C[C@@H]1c1ccccc1)[C@@H]1CN(C(=O)Cc2cccc(CC(=O)N3C[C@@H](C(=O)N[C@H]4C[C@@H]4c4ccccc4)[C@H](C(=O)N[C@H]4C[C@@H]4c4ccccc4)C3)c2)C[C@H]1C(=O)N[C@H]1C[C@@H]1c1ccccc1 |  |  | > 5000 nM | > 5000 nM |
| CCCCCCCCNC(=O)[C@@H]1CN(C(=O)c2ccc(C(=O)N3C[C@@H](C(=O)NCCCCCCCC)[C@H](C(=O)N[C@@H]4C[C@H]4c4ccccc4)C3)cc2)C[C@H]1C(=O)N[C@@H]1C[C@H]1c1ccccc1 |  |  | 3.5 nM | 710 nM |
| N#Cc1ccc([C@H]2C[C@@H]2NC(=O)[C@@H]2CN(C(=O)c3ccc(C(=O)N4C[C@@H](C(=O)N[C@H]5C[C@@H]5c5ccc(C#N)cc5)[C@H](C(=O)N[C@@H]5C[C@H]5c5ccc(C#N)cc5)C4)cc3)C[C@H]2C(=O)N[C@H]2C[C@@H]2c2ccc(C#N)cc2)cc1 |  |  | > 5000 nM | > 5000 nM |
| CCCCCCCCCCNC(=O)[C@@H]1CN(C(=O)c2ccc(C(=O)N3C[C@@H](C(=O)N[C@H]4C[C@@H]4c4ccccc4)[C@H](C(=O)N[C@@H]4C[C@H]4c4ccccc4)C3)cc2)C[C@H]1C(=O)NCCCCCCCCCC |  |  | 0.18 nM | 4 nM |
| O=C(N[C@H]1C[C@@H]1c1ccccc1)[C@@H]1CN(C(=O)/C=C/C=C/C(=O)N2C[C@@H](C(=O)N[C@H]3C[C@@H]3c3ccccc3)[C@H](C(=O)N[C@H]3C[C@@H]3c3ccccc3)C2)C[C@H]1C(=O)N[C@H]1C[C@@H]1c1ccccc1 |  |  | 0.2 nM | 130 nM |
| O=C(N[C@H]1C[C@@H]1c1ccccc1)[C@@H]1CN(C(=O)Cc2ccc(CC(=O)N3C[C@@H](C(=O)N[C@H]4C[C@@H]4c4ccccc4)[C@H](C(=O)N[C@H]4C[C@@H]4c4ccccc4)C3)cc2)C[C@H]1C(=O)N[C@H]1C[C@@H]1c1ccccc1 |  |  | > 5000 nM | > 5000 nM |
